Values quoted from earlier work in patent US7713922B2, “Perfume compositions” (Quest International Services B.V., priority 2005, dated 2010).
Where a name gives a salt, the structure may show the parent alone.

Details: at 25° C.

| Compound | VP Class (vapour pressure class) |
| --- | --- |
| COC(Cc1ccccc1)OC | III (vp at least 100 micron Hg at 25° C.) |
| 2,4-DIMETHYL-6-PHENYLDIHYDROPYRAN | I (vp greater than 3 micron Hg but less than 30 micron Hg at 25° C.) |
| COCCc1ccccc1 [2-PHENYLETHYL METHYL ETHER] | III (vp at least 100 micron Hg at 25° C.) |
| OCCCc1ccccc1 [3-PHENYLPROPYL ALCOHOL] | I (vp greater than 3 micron Hg but less than 30 micron Hg at 25° C.) |
| CC(=O)c1ccccc1 [ACETOPHENONE] | III (vp at least 100 micron Hg at 25° C.) |
| C=CCOC(=O)COc1ccccc1 [ALLYL PHENOXYACETATE] | I (vp greater than 3 micron Hg but less than 30 micron Hg at 25° C.) |
| CCCCCOC(=O)c1ccccc1O [AMYL SALICYLATE] | I (vp greater than 3 micron Hg but less than 30 micron Hg at 25° C.) |
| CC=Cc1ccc(OC)cc1 [ANETHOLE] | II (vp greater than 30 micron Hg but less than 100 micron at 25° C.) |
| COc1ccc(C=O)cc1 [ANISIC ALDEHYDE] | II (vp greater than 30 micron Hg but less than 100 micron at 25° C.) |
| CC(C)CCOCCc1ccccc1 [ANTHER, 2-PHENYLETHYL ISOAMYL ETHER] | II (vp greater than 30 micron Hg but less than 100 micron at 25° C.) |
| CC(C=O)Cc1ccc2c(c1)OCO2 (stereo not shown) [AQUANAL] | I (vp greater than 3 micron Hg but less than 30 micron Hg at 25° C.) |
| CC(=O)OCc1ccccc1 [BENZYL ACETATE] | III (vp at least 100 micron Hg at 25° C.) |
| CC(=O)CCc1ccccc1 [BENZYL ACETONE] | II (vp greater than 30 micron Hg but less than 100 micron at 25° C.) |
| C/C=C(\C)C(=O)OCc1ccccc1 [BENZYL TIGLATE, PHENYLMETHYL (2E)-2-METHYLBUT-2-ENOATE] | I (vp greater than 3 micron Hg but less than 30 micron Hg at 25° C.) |
| CC(C)(C)c1ccc(CCC=O)cc1 [BOURGEONAL, 3-(4-TERT.BUTYLPHENYL)PROPANAL] | I (vp greater than 3 micron Hg but less than 30 micron Hg at 25° C.) |
| COc1ccc(CC(C)C=O)cc1 (stereo not shown) [CANTHOXAL, 2-METHYL-3-(4-METHOXYPHENYL)PROPANAL] | I (vp greater than 3 micron Hg but less than 30 micron Hg at 25° C.) |
| OC/C=C/c1ccccc1 [CINNAMIC ALCOHOL] | I (vp greater than 3 micron Hg but less than 30 micron Hg at 25° C.) |
| CC(C=O)Cc1ccc(C(C)C)cc1 (stereo not shown) [CYCLAMEN ALDEHYDE, 2-METHYL-3-(4′-ISO-PROPYLPHENYL)PROPANAL] | I (vp greater than 3 micron Hg but less than 30 micron Hg at 25° C.) |
| c1ccc(Oc2ccccc2)cc1 [DIPHENYL OXIDE] | I (vp greater than 3 micron Hg but less than 30 micron Hg at 25° C.) |
| CCOC(C)OCCc1ccccc1 (stereo not shown) [EFETAAL, (2-{[1-(ETHYLOXY)ETHYL]OXY}ETHYL)BENZENE] | II (vp greater than 30 micron Hg but less than 100 micron at 25° C.) |
| CCOC(=O)c1ccccc1 [ETHYL BENZOATE] | III (vp at least 100 micron Hg at 25° C.) |
| C=CCc1ccc(O)c(OC)c1 [EUGENOL] | I (vp greater than 3 micron Hg but less than 30 micron Hg at 25° C.) |
| CCc1ccc(CC(C)(C)C=O)cc1 [FLORALOZONE, 2,2-DIMETHYL-3-(PARA-ETHYL PHENYL)PROPANAL] | I (vp greater than 3 micron Hg but less than 30 micron Hg at 25° C.) |

| Compound | VP Class (vapour pressure class) |
| --- | --- |
| CC(C)c1cccc(C(C)CC=O)c1 (stereo not shown) [FLORHYDRAL] | I (vp greater than 3 micron Hg but less than 30 micron Hg at 25° C.) |
| CC(C)CCOC(=O)c1ccccc1O [ISOAMYL SALICYLATE] | I (vp greater than 3 micron Hg but less than 30 micron Hg at 25° C.) |
| CC(C)COC(=O)c1ccccc1O [ISOBUTYL SALICYLATE] | I (vp greater than 3 micron Hg but less than 30 micron Hg at 25° C.) |
| CC=Cc1ccc(O)c(OC)c1 [ISOEUGENOL] | II (vp greater than 30 micron Hg but less than 100 micron at 25° C.) |
| CC(C)(C)c1ccc(CC#N)cc1 [MARENIL, 4-TERT-BUTYLPHENYLACETONITRILE] | I (vp greater than 3 micron Hg but less than 30 micron Hg at 25° C.) |
| CC(CC=O)CCc1ccccc1 (stereo not shown) [MEFRANAL, 3-METHYL-5-PHENYLPENTANAL] | I (vp greater than 3 micron Hg but less than 30 micron Hg at 25° C.) |
| CC(CCO)CCc1ccccc1 (stereo not shown) [MEFROSOL, 3-METHYL-5-PHENYLPENTANOL] | I (vp greater than 3 micron Hg but less than 30 micron Hg at 25° C.) |
| COC(=O)c1ccccc1N [METHYL ANTHRANILATE] | I (vp greater than 3 micron Hg but less than 30 micron Hg at 25° C.) |
| COC(=O)c1ccccc1 [METHYL BENZOATE] | III (vp at least 100 micron Hg at 25° C.) |
| C=CCc1ccc(OC)cc1 [METHYL CHAVICOL, 4-METHOXY-1-(2-PROPENYL)-BENZENE] | III (vp at least 100 micron Hg at 25° C.) |
| COC(=O)C=Cc1ccccc1 [METHYL CINNAMATE] | I (vp greater than 3 micron Hg but less than 30 micron Hg at 25° C.) |
| C=CCc1ccc(OC)c(OC)c1 [METHYL EUGENOL] | I (vp greater than 3 micron Hg but less than 30 micron Hg at 25° C.) |
| COC(=O)Cc1ccccc1 [METHYL PHENYLACETATE] | III (vp at least 100 micron Hg at 25° C.) |
| COC(=O)c1ccccc1O [METHYL SALICYLATE] | III (vp at least 100 micron Hg at 25° C.) |
| CC(C)OCCc1ccccc1 [PETIOLE, 2-PHENYLETHYL ISOPROPYL ETHER] | III (vp at least 100 micron Hg at 25° C.) |
| CC(C)C(=O)OCCOc1ccccc1 [PHENOXYETHYL ISOBUTYRATE] | I (vp greater than 3 micron Hg but less than 30 micron Hg at 25° C.) |
| CC(=O)OCCc1ccccc1 [PHENYLETHYL ACETATE] | II (vp greater than 30 micron Hg but less than 100 micron at 25° C.) |
| O=COCCc1ccccc1 [PHENYLETHYL FORMATE] | II (vp greater than 30 micron Hg but less than 100 micron at 25° C.) |
| CC1CC(C)(c2ccccc2)CO1 (stereo not shown) [RHUBAFURAN] | II (vp greater than 30 micron Hg but less than 100 micron at 25° C.) |
| CC(=O)OC(C)c1ccccc1 (stereo not shown) [STYRALLYL ACETATE] | III (vp at least 100 micron Hg at 25° C.) |
| COc1ccc(C)cc1 [para-CRESYL METHYL ETHER] | III (vp at least 100 micron Hg at 25° C.) |
| COc1ccc(C(C)=O)cc1 [para-METHOXYACETOPHENONE] | II (vp greater than 30 micron Hg but less than 100 micron at 25° C.) |
| CC(=O)c1ccc(C)cc1 [para-METHYLACETOPHENONE] | III (vp at least 100 micron Hg at 25° C.) |
